Test results reported in patent US9181305B2, “Exendin-4 peptide analogues” (SANOFI, priority 2012, dated 2015).
In brackets after ≈: the same amount, converted by molar mass. *1 amine or outer side, *2 acyl side, *3 side chain or, on linkers, in order; H or OH if unused. Where a SMILES comes first, the peptide text is derived from it. Side-chain parts run from the residue outwards. [ ]: non-standard residue; d: D form. The star is where a group is joined. γGlu = O=C(O)[C@H](CCC(=O)[*:2])N[*:1]; Palmitoyl = CCCCCCCCCCCCCCCC(=O)*

Legend:
[1] = system: female NMRI-mice; test: Automated assessment of feed intake in mice (22 hours); type: in vivo
Procedure: Female NMRI-mice of a body weight between 20 and 30 g were used. Mice were adapted to housing conditions for at least one week and for at least one day single-caged in the assessment equipment, when basal data were recorded simultaneously. On the study day, test product was administered subcutaneously close to the lights-off phase (12 h lights off) and assessment of feed consumption was directly started afterwards. Assessment included continued monitoring (every 30 min) over 22 hours. Repetition of this procedure over several days was possible. Restriction of assessment to 22 hours was for practical reason to allow for reweighing of animals, refilling of feed and water and drug administration between procedures. Results could be assessed as cumulated data over 22 hours or differentiated to 30 min intervals. Statistical analyses were performed with Everstat 6.0 by two-way ANOVA on repeated measures and Dunnetts post-hoc analyses. Differences were considered statistically significant at the p<0.05 level. Fed female NMRI-mice, weighing on average 27 g, were administered 0.01 or 0.1 mg/kg of SEQ ID NO: (7) or phosphate buffered saline (vehicle control) subcutaneously, directly prior to start of feeding monitoring. Lights-off phase (dark phase) started 4 hours later.

[2] = system: female NMRI-mice; test: Gastric emptying and intestinal passage in mice; type: in vivo; settings: 0.02 mg/kg s.c., 30 min prior to coloured bolus; p<0.0001
Procedure: Female NMRI-mice of a body weight between 20 and 30 g were used. Mice were adapted to housing conditions for at least one week. Mice were overnight fasted, while water remained available all the time. On the study day, mice were weighed, single-caged and allowed access to 500 mg of feed for 30 min, while water was removed. At the end of the 30 min feeding period, remaining feed was removed and weighed. 60 min later, a coloured, non-caloric bolus was instilled via gavage into the stomach. The test product or its vehicle in the control group was administered subcutaneously, to reach Cmax when coloured bolus was administered. After another 30 min, the animals were sacrificed and the stomach and the small intestine prepared. The filled stomach was weighed, emptied, carefully cleaned and dried and reweighed. The calculated stomach content indicated the degree of gastric emptying. The small intestine was straightened without force and measured in length. Then the distance from the gastric beginning of the gut to the tip of the farthest travelled intestinal content bolus was measured. The intestinal passage was given as relation in percent of the latter distance and the total length of the small intestine. Statistical analyses were performed with Everstat 6.0 by Student's T-Test. Differences were considered statistically significant at the p<0.05 level. […]

[3] = physchem; type: physicochemical
Procedure: Prior to the testing of solubility and stability of a peptide batch, its content was determined. Therefore, two parameters were investigated, its purity (HPLC-UV) and the amount of salt load of the batch (ion chromatography). Since synthesized peptides contain primarily trifluoracetate anions, only anion chromatography was performed. The content was then calculated based on the assumption that peptide-related impurities are detected at the same UV-absorption rate as the target peptide, as well as that cations are not present in the sample.
Therefore, solutions from solid samples were prepared in different buffer systems with a concentration of 1.0 mg/mL compound based on the previously determined content. HPLC-UV was performed after 2 h of gentle agitation from the supernatant, which was obtained by 20 min of centrifugation at 4000 rpm. […] This analysis also served as t0 for the stability testing.
Instrument: Agilent 1100, column: X-Bridge C18 3.5 μm 2.1×150 mm (Waters), eluent: A: H20+500 ppm TFA/B: Methanol, flow: 0.55 ml/min, gradient: 0-5 min: 10-60% B; 5-15 min: 60-99% B; detection: 214 nm.

[4] = molecular target: T1, human GLP-1 receptor (hGLP-1 R) (Homo sapiens, UniProt P43220); test: cAMP response (HTRF) of HEK-293 cells stably expressing human GLP-1 receptor; type: cell-based; settings: HEK-293 cells expressing human GLP-1 receptor, cAMP formation
T1 construct: expressed in transfected cells; host or cells: HEK-293
T1 sequence (P43220 24-463): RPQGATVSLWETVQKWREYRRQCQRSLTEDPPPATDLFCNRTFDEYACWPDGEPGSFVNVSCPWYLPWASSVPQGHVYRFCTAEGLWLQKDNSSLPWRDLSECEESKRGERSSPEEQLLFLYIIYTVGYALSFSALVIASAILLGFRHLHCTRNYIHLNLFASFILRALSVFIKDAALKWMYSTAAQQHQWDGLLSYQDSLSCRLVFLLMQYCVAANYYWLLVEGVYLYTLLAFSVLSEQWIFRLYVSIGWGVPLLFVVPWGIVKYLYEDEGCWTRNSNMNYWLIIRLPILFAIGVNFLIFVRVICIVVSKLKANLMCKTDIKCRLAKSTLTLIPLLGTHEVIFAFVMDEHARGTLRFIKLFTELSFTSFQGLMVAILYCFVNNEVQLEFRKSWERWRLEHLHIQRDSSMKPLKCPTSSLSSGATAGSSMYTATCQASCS
Summary of the method: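 Detached HEK-293 cells stably expressing the receptor were suspended in HBSS with 20 mM HEPES, 0.1% BSA and 2 mM IBMX. Test compound was added for 30 min at room temperature, and cellular cAMP was quantified by HTRF.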

[5] = system: female diet-induced obese C57BL/6NCrl mice; test: Single subcutaneous treatment, blood glucose in diet-induced obese mice; type: in vivo; settings: single s.c. 100 μg/kg, fed DIO mice (9 months on high-fat diet)
Procedure: Female C57BL/6NCrl mice were housed in groups (n=8) and had ad-libitum access to high-fat diet and water. Initial blood samples were taken just before administration (s.c.) of vehicle (phosphate buffer solution) or the exendin-4 analogue (e.g. SEQ ID NO: (7)) (100 μg/kg in phosphate buffer) in fed DIO mice. The volume of administration was 5 mL/kg. The animals had access to high-fat diet and water during the experiment, food consumption was determined at all time points for blood sampling. Blood glucose levels were measured at t=0.5 h, t=1 h, t=2 h, t=4 h, t=6 h, t=8 h, and t=24 h. Blood sampling was performed by tail incision without anaesthesia. Statistical analyses were performed with Everstat 6.0 by repeated measures two-way ANOVA and Dunnetts post-hoc analyses. Differences were considered statistically significant at the p<0.05 level.

[6] = molecular target: T2, human glucagon receptor (hGlucagon R) (Homo sapiens, UniProt P47871); test: cAMP response (HTRF) of HEK-293 cells stably expressing human glucagon receptor; type: cell-based; settings: read-out: EC50 hGlucagonR
T2 construct: expressed in transfected cells; host or cells: HEK-293
T2 sequence (P47871 26-477): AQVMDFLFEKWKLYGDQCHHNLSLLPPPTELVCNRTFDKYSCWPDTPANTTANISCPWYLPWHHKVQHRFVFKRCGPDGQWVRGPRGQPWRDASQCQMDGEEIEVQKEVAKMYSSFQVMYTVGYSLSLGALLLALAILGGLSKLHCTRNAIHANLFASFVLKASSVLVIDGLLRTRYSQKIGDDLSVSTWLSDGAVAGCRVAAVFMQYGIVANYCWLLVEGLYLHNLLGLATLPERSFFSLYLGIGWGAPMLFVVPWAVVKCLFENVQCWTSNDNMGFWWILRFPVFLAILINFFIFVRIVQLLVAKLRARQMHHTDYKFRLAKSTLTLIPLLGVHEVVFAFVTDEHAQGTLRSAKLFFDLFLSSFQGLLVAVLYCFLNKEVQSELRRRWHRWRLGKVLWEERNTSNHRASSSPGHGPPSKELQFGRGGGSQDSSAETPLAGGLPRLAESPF
Procedure: cAMP content of cells was determined using a kit from Cisbio Corp. (cat. no. 62AM4PEC) based on HTRF (Homogenous Time Resolved Fluorescence). For preparation, cells were split into T175 culture flasks and grown overnight to near confluency in medium (DMEM/10% FBS). Medium was then removed and cells washed with PBS lacking calcium and magnesium, followed by proteinase treatment with accutase (Sigma-Aldrich cat. no. A6964). Detached cells were washed and resuspended in assay buffer (1×HBSS; 20 mM HEPES, 0.1% BSA, 2 mM IBMX) and cellular density determined. […] For measurement, 25 μl of test compound in assay buffer was added to the wells, followed by incubation for 30 minutes at room temperature.

Row | Compound | reduction of feed intake at the end of the study (22 hours) ([1]; 0.01 mg/kg s.c., p=0.0027) | reduction of feed intake at the end of the study (22 hours) ([1]; 0.1 mg/kg s.c., p<0.0001) | reduction of intestinal passage [2] | solubility at 2 h ([3]; pH 4.5) | solubility at 2 h ([3]; pH 7.4) | EC50 [4] | blood glucose over 24 h compared to vehicle-treated control animals [5] | EC50 [6]
1 | CCCCCCCCCCCCCCCC(=O)N[C@@H](CCC(=O)NCCCC[C@H](NC(=O)[C@H](CO)NC(=O)[C@@H]1CCCN1C(=O)[C@@H]1CCCN1C(=O)[C@@H]1CCCN1C(=O)[C@H](C)NC(=O)CNC(=O)[C@H](CO)NC(=O)[C@H](CO)NC(=O)[C@@H]1CCCN1C(=O)CNC(=O)CNC(=O)[C@H](CC(N)=O)NC(=O)[C@H](CCCCN)NC(=O)[C@H](CC(C)C)NC(=O)[C@H](Cc1c[nH]c2ccccc12)NC(=O)[C@H](CCC(=O)O)NC(=O)[C@@H](NC(=O)[C@H](Cc1ccccc1)NC(=O)[C@H](CC(=O)O)NC(=O)[C@H](CCC(N)=O)NC(=O)[C@H](C)NC(=O)[C@H](CCCNC(=N)N)NC(=O)[C@H](CCCNC(=N)N)NC(=O)[C@H](CO)NC(=O)[C@H](CC(=O)O)NC(=O)[C@H](CCSC)NC(=O)[C@H](CCC(N)=O)NC(=O)[C@H](CCCCN)NC(=O)[C@H](CO)NC(=O)[C@H](CC(C)C)NC(=O)[C@H](CC(=O)O)NC(=O)[C@H](CO)NC(=O)[C@@H](NC(=O)[C@H](Cc1ccccc1)NC(=O)[C@@H](NC(=O)CNC(=O)[C@H](CCC(N)=O)NC(=O)[C@@H](CO)NC(=O)[C@@H](N)Cc1c[nH]cn1)[C@@H](C)O)[C@@H](C)O)[C@@H](C)CC)C(N)=O)C(=O)O [(7)] | 17% | 37% | 54% | > 1000 µg/mL | > 1000 µg/mL | 5.2 pM | significantly decreased | 
2 | CCCCCCCCCCCCCCCC(=O)N[C@@H](CCC(=O)NCCCC[C@H](NC(=O)[C@H](CO)NC(=O)[C@@H]1CCCN1C(=O)[C@@H]1CCCN1C(=O)[C@@H]1CCCN1C(=O)[C@H](C)NC(=O)CNC(=O)[C@H](CO)NC(=O)[C@H](CO)NC(=O)[C@@H]1CCCN1C(=O)CNC(=O)CNC(=O)[C@H](C)NC(=O)[C@H](CCCCN)NC(=O)[C@H](CC(C)C)NC(=O)[C@H](Cc1c[nH]c2ccccc12)NC(=O)[C@H](CCC(=O)O)NC(=O)[C@@H](NC(=O)[C@H](Cc1ccccc1)NC(=O)[C@H](CC(C)C)NC(=O)[C@H](CCC(N)=O)NC(=O)[C@H](C)NC(=O)[C@H](C)NC(=O)[C@H](CCCNC(=N)N)NC(=O)[C@H](CO)NC(=O)[C@H](CCC(=O)O)NC(=O)[C@H](CCSC)NC(=O)[C@H](CCC(N)=O)NC(=O)[C@H](CCCCN)NC(=O)[C@H](CO)NC(=O)[C@H](CC(C)C)NC(=O)[C@H](CC(=O)O)NC(=O)[C@H](CO)NC(=O)[C@@H](NC(=O)[C@H](Cc1ccccc1)NC(=O)[C@@H](NC(=O)CNC(=O)[C@H](CCC(N)=O)NC(=O)[C@@H](CO)NC(=O)[C@@H](N)Cc1c[nH]cn1)[C@@H](C)O)[C@@H](C)O)[C@@H](C)CC)C(N)=O)C(=O)O [(79)] (H-H[dS]QGTFTSDLSKQMESRAAQLFIEWLKAGGPSSGAPPPSK([γGlu-Palmitoyl])-NH2) |  |  |  | > 1000 µg/mL | 666 µg/mL (≈ 145 µM) | 3.7 pM |  | 195 pM
